These results are taken from ChEMBL document CHEMBL4834411, “Hydroazulene Diterpenes from a Dictyota Brown Alga and Their Antioxidant and Neuroprotective Effects Against Cerebral Ischemia-Reperfusion Injury” (2021).

Test [1] deals with Rattus norvegicus. The experiment in a line: Neuroprotective activity in Sprague-Dawley rat model of middle cerebral artery occlusion-induced cerebral ischemia-reperfusion injury assessed as reduction in neurological deficit score at 80 ug/kg pretreated for 2 hrs followed by MCAO measured after 72 hrs by TTC staining based assay. Type of test: functional, organism-based. Conditions: dose 80.0 µg/kg, time 74.0 hrs.

The target in test [2] is T1, Nuclear factor erythroid 2-related factor 2 (Rattus norvegicus) (UniProt O54968).
T1 sequence (whole entry): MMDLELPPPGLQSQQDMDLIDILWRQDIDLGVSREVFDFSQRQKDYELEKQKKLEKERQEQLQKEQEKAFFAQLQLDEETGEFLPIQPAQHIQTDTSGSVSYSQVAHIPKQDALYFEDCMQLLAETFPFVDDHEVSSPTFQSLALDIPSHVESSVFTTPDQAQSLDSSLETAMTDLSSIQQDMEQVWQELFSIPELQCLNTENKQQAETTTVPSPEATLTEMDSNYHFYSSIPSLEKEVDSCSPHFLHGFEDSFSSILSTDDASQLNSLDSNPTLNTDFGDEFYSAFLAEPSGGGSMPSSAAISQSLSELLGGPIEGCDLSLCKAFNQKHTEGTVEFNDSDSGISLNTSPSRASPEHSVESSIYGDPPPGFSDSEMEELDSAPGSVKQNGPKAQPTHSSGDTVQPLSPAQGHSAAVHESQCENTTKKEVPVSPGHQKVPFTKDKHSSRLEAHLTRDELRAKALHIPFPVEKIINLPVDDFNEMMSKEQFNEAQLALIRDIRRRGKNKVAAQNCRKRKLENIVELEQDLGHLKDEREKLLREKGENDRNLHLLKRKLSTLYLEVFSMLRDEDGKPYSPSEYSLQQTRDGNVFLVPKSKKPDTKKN
The experiment in a line: Activation of Nrf2 in rat PC12 cells assessed as nuclear translocation of Nrf2 at 2 uM after 6 hrs by DAPI staining based fluorescence microscopy analysis. Type of test: cell-based. Conditions: PC-12, filed as activator.

The subject of test [3] is PC-12. In words: Antioxidant activity against H2O2-induced oxidative damage in rat PC12 cells assessed as inhibition of intracellular ROS production at 2 uM preincubated for 24 hrs followed by H2O2 stimulation for 2 hrs by DCFH-DA staining based fluorescence microscopy. The class given is functional, cell-based. Conditions: time 26.0 hrs.
Test [4] deals with PC-12. The experiment in a line: Cytoprotective activity against H2O2-induced oxidative damage in Nrf2 knockdown rat PC12 cells assessed as increase in cell viability at 2 uM preincubated for 24 hrs followed by H2O2 treatment for another 24 hrs by MTT assay. The class given is functional, cell-based. As to conditions: time 48.0 hrs. (In general: Tetrazolium assays rely on reduction of a dye to a coloured formazan, in cell work by metabolically active cells.)

For test [5], the system named is PC-12. In words: Cytoprotective activity against H2O2-induced oxidative damage in rat PC12 cells assessed as increase in colony formation at 0.5 to 1 uM preincubated for 24 hrs followed by H2O2 treatment by crystal violet staining based assay. The class given is functional, cell-based. Conditions: dose 0.5-1 µM.
In test [6] the test system is PC-12. In words: Cytoprotective activity against H2O2-induced oxidative damage in rat PC12 cells assessed as increase in cell viability pre-incubated for 24 hrs followed by H2O2 treatment for another 24 hrs by MTT assay. The class given is functional, cell-based. Conditions: dose 0.25-2 µM, time 48.0 hrs.
Test [7] relates to PC-12. In words: Cytoprotective activity against H2O2-induced oxidative damage in rat PC12 cells assessed as increase in cell viability at 0.25 uM preincubated for 24 hrs followed by H2O2 treatment for another 24 hrs by MTT assay. Conditions: time 48.0 hrs. Type of test: functional, cell-based.
The test system of test [8] is Rattus norvegicus. The experiment in a line: Neuroprotective activity in Sprague-Dawley rat model of middle cerebral artery occlusion-induced cerebral ischemia-reperfusion injury assessed as decrease in brain infarction size at 80 ug/kg pretreated for 2 hrs followed by MCAO measured after 72 hrs by TTC staining based assay. Conditions: dose 80.0 µg/kg. Type of test: functional, organism-based.

The target of test [9] is T1, Nuclear factor erythroid 2-related factor 2 (Rattus norvegicus). In words: Activation of Nrf2 in rat PC12 cells assessed as upregulation of HO-1 protein expression after 24 hrs by Western blotting analysis. Type of test: cell-based. As to conditions: PC-12, filed as activator, dose 0.5-2 µM. On the technique in general: A western blot detects proteins with antibodies after separation by electrophoresis.

Test [10] has the same target. The experiment in a line: Activation of Nrf2 in rat PC12 cells assessed as upregulation of HO-1 protein expression at 2 uM after 24 hrs by Western blotting analysis. The class given is cell-based. Conditions: PC-12, filed as activator.
Test [11] relates to PC-12. In words: Antioxidant activity against H2O2-induced oxidative damage in rat PC12 cells assessed as inhibition of MDA production at 2 uM preincubated for 24 hrs followed by H2O2 stimulation for 6 hrs. The class given is functional, cell-based. As to conditions: time 30.0 hrs.

Calls of active or inactive are those of the source. The calls are words filed in the database; no cut-off is given here.

Take `CC(C)=CCC[C@@H](C)[C@@H]1CC[C@](C)(O)[C@@H]2CC=C(C)[C@H]2[C@@H]1O`: the outcome (with Rattus norvegicus [1]; in test [2]; with PC-12 [3]; with PC-12 [5]; in the test with PC-12 [7]; in the test on Rattus norvegicus [8]) was Active. Further, the outcome (in test [10]; in the test on PC-12 [11]) was Active. For the same compound, the outcome with PC-12 [4] was inactive. Moreover, the Activity entry (with PC-12 [6]; in [9]) was “Dose-Dependent Effect” in each case.
